Experimental data from US6964949B2, “Pharmaceutical compositions for promoting the growth of gram-positive bacilli and increasing the acidity in the vagina and the use thereof” (Shanghai Jiao Da Onlly Co., Ltd., priority 2000, dated 2005).

How the values were obtained:
Format in all cases: cell-based
Conditions in all cases: 10.0% saccharide, 1.0% yeast extract, 1.6% xanthan gum (dextrin 0.5%, starch none), pH 6.2, candle jar, 37° C.
[1] = test system: Gram-negative bacilli; experiment: Experiment Example 2: comparison of saccharides, specimen culture, Gram smear
From the text: (§1) • (1)The preparation of the compositions: Different saccharides were used respectively to prepare the following compositions according to the methods mentioned above: glucose, fructose, galactose, mannose, maltose, sucrose, lactose, lactulose, mycose, cellobiose, melibiose, melitose, malto-oligosaccharide, isomaltooligosaccharide and fructooligosaccharide, dextrin, starch, and glycogen: • A. 5% glucose, 1.0% yeast extract, 1.6% xanthan gum, pH adjusted to 6.2; • B. 5% fructose, 1.0% yeast extract, 1.6% xanthan gum, pH adjusted to 6.2; • C. 5% galactose, 1.0% yeast extract, 1.6% xanthan gum, pH adjusted to 6.2; • D. 5% mannose, 1.0% yeast extract, 1.6% xanthan gum, pH adjusted to 6.2; • E. 10.0% maltose, 1.0% yeast extract, 1.6% xanthan gum, pH adjusted to 6.2; • F. 10.0% sucrose, 1.0% yeast extract, 1.6% xanthan gum, pH adjusted to 6.2; • G. 10.0% lactose, 1.0% yeast extract, 1.6% xanthan gum, pH adjusted to 6.2; • H. 10.0% lactulose, 1.0% yeast extract, 1.6% xanthan gum, pH adjusted to 6.2; • I. 10.0% cellobiose, 1.0% yeast extract, 1.6% xanthan gum, pH adjusted to 6.2; • J. 10.0% mycose, 1.0% yeast extract, 1.6% xanthan gum, pH adjusted to 6.2; • K. 10.0% melibiose, 1.0% yeast extract, 1.6% xanthan gum, pH adjusted to 6.2; • L. 10.0% melitose, 1.0% yeast extract, 1.6% xanthan gum, pH adjusted to 6.2; • M. 10.0% maltooligosaccharide, 1.0% yeast extract, 1.6% xanthan gum, pH adjusted to 6.2; • N. 10.0% isomaltooligosaccharide, 1.0% yeast extract, 1.6% xanthan gum, pH adjusted to 6.2; • O. 10.0% fructooligosaccharide, 1.0% yeast extract, 1.6% xanthan gum, pH adjusted to 6.2; • P. 10.0% dextrin, 1.0% yeast extract, 0.5% xanthan gum, pH adjusted to 6.2; • Q. 10.0% starch, 1.0% yeast extract, pH adjusted to 6.2; • R. 10.0% glycogen, 1.0% yeast extract, 1.6% xanthan gum, pH adjusted to 6.2. • (2)The preparation of the test tubes: The compositions prepared above were filled into test tubes, with each tube containing 5 ml, sterilized, and kept until use for experiment. • (3) Specimen suspension: Vaginal secretion was taken from one of the patients suffering from typical bacterial vagmosis with a cotton swab, then the swab was washed in 2 ml sterilized Trypcase-soy Broth immediately, and thus the specimen suspension was ready. […] Then the tubes were placed in a candle jar and cultivated at 37° C. After 24 hours and 48 hours' culture, culture samples were taken respectively from each of the tubes, then the Gram smears of the samples were observed and the pH values of culture samples were tested. […] Meanwhile the pH values in most of the composition tubes decreased to different levels. […] And maltose and sucrose exert better effect in promoting the growth of Gram-positive bacilli and the production of acids than that of the other kinds of oligosaccharides.

[2] = test system: Gram-negative cocci; experiment: as above
From the text: as §1

[3] = test system: Gram-positive bacilli; experiment: as above
From the text: as §1

[4] = test system: Gram-positive cocci; experiment: as above
From the text: as §1

[5] = test system: vaginal secretion specimen of a patient suffering from typical bacterial vaginosis; experiment: Experiment Example 2: pH of culture samples (production of acids)
From the text: as §1

| Compound | Bacteria G − b (Gram-negative bacilli), 24 hours-culture [1] | Bacteria G − b (Gram-negative bacilli), 48 hours-culture [1] | Bacteria G − c (Gram-negative cocci), 24 hours-culture [2] | Bacteria G − c (Gram-negative cocci), 48 hours-culture [2] | Bacteria G + b (Gram-positive bacilli), 24 hours-culture [3] | Bacteria G + b (Gram-positive bacilli), 48 hours-culture [3] | Bacteria G + c (Gram-positive cocci), 24 hours-culture [4] | Bacteria G + c (Gram-positive cocci), 48 hours-culture [4] | pH, 24 hours-culture [5] | pH, 48 hours-culture [5] |
| --- | --- | --- | --- | --- | --- | --- | --- | --- | --- | --- |
| glycogen | G − b, ++ (About 10-99 bacteria per field of vision under oil-immersion lens) | G − b, ++ (About 10-99 bacteria per field of vision under oil-immersion lens) | G − c, − (No or less than one bacterium per field of version under oil-immersion lens) | G − c, − (No or less than one bacterium per field of version under oil-immersion lens) | G + b, ++ (About 10-99 bacteria per field of vision under oil-immersion lens) | G + b, +++ (About 100 bacteria or more per field vision under oil-immersion lens, even uncountable) | G + c, + (1-9 bacteria per field of vision under oil-immersion lens) | G + c, + (1-9 bacteria per field of vision under oil-immersion lens) | 6.4 | 6.2 |
| OC[C@H]1O[C@H](O[C@H]2O[C@H](CO)[C@@H](O)[C@H](O)[C@H]2O)[C@H](O)[C@@H](O)[C@@H]1O [Mycose, mycose] | G − b, + (1-9 bacteria per field of vision under oil-immersion lens) | G − b, ++ (About 10-99 bacteria per field of vision under oil-immersion lens) | G − c, − (No or less than one bacterium per field of version under oil-immersion lens) | G − c, − (No or less than one bacterium per field of version under oil-immersion lens) | G + b, ++ (About 10-99 bacteria per field of vision under oil-immersion lens) | G + b, +++ (About 100 bacteria or more per field vision under oil-immersion lens, even uncountable) | G + c, + (1-9 bacteria per field of vision under oil-immersion lens) | G + c, + (1-9 bacteria per field of vision under oil-immersion lens) | 4.8 | 4.6-4.8 |
| OC[C@H]1O[C@H](OC[C@H]2O[C@H](O[C@]3(CO)O[C@H](CO)[C@@H](O)[C@@H]3O)[C@H](O)[C@@H](O)[C@@H]2O)[C@H](O)[C@@H](O)[C@H]1O [Melitose, melitose] | G − b, + (1-9 bacteria per field of vision under oil-immersion lens) | G − b, ++ (About 10-99 bacteria per field of vision under oil-immersion lens) | G − c, + (1-9 bacteria per field of vision under oil-immersion lens) | G − c, − (No or less than one bacterium per field of version under oil-immersion lens) | G + b, ++ (About 10-99 bacteria per field of vision under oil-immersion lens) | G + b, +++ (About 100 bacteria or more per field vision under oil-immersion lens, even uncountable) | G + c, + (1-9 bacteria per field of vision under oil-immersion lens) | G + c, + (1-9 bacteria per field of vision under oil-immersion lens) | 6.7 | 5.8 |
| OC[C@H]1O[C@@H](O[C@H]2[C@H](O)[C@@H](O)C(O)O[C@@H]2CO)[C@H](O)[C@@H](O)[C@H]1O (stereo partly shown) [Lactose, lactose] | G − b, + (1-9 bacteria per field of vision under oil-immersion lens) | G − b, + (1-9 bacteria per field of vision under oil-immersion lens) | G − c, − (No or less than one bacterium per field of version under oil-immersion lens) | G − c, − (No or less than one bacterium per field of version under oil-immersion lens) | G + b, ++ (About 10-99 bacteria per field of vision under oil-immersion lens) | G + b, ++ (About 10-99 bacteria per field of vision under oil-immersion lens) | G + c, +++ (About 100 bacteria or more per field vision under oil-immersion lens, even uncountable) | G + c, + (1-9 bacteria per field of vision under oil-immersion lens) | 5.8 | 5.1-5.4 |
| dextrin | G − b, ++ (About 10-99 bacteria per field of vision under oil-immersion lens) | G − b, + (1-9 bacteria per field of vision under oil-immersion lens) | G − c, − (No or less than one bacterium per field of version under oil-immersion lens) | G − c, − (No or less than one bacterium per field of version under oil-immersion lens) | G + b, +++ (About 100 bacteria or more per field vision under oil-immersion lens, even uncountable) | G + b, ++ (About 10-99 bacteria per field of vision under oil-immersion lens) | G + c, + (1-9 bacteria per field of vision under oil-immersion lens) | G + c, − (No or less than one bacterium per field of version under oil-immersion lens) | 6.2 | 5.8 |
| OC[C@H]1O[C@H](OCC2O[C@@H](O)[C@H](O)[C@@H](O)[C@@H]2O)[C@H](O)[C@@H](O)[C@H]1O (stereo partly shown) [Melibiose, melibiose] | G − b, ++ (About 10-99 bacteria per field of vision under oil-immersion lens) | G − b, ++ (About 10-99 bacteria per field of vision under oil-immersion lens) | G − c, + (1-9 bacteria per field of vision under oil-immersion lens) | G − c, − (No or less than one bacterium per field of version under oil-immersion lens) | G + b, + (1-9 bacteria per field of vision under oil-immersion lens) | G + b, ++ (About 10-99 bacteria per field of vision under oil-immersion lens) | G + c, + (1-9 bacteria per field of vision under oil-immersion lens) | G + c, + (1-9 bacteria per field of vision under oil-immersion lens) | 6.2 | 5.8 |
| starch | G − b, ++ (About 10-99 bacteria per field of vision under oil-immersion lens) | G − b, ++ (About 10-99 bacteria per field of vision under oil-immersion lens) | G − c, − (No or less than one bacterium per field of version under oil-immersion lens) | G − c, − (No or less than one bacterium per field of version under oil-immersion lens) | G + b, ++ (About 10-99 bacteria per field of vision under oil-immersion lens) | G + b, ++ (About 10-99 bacteria per field of vision under oil-immersion lens) | G + c, + (1-9 bacteria per field of vision under oil-immersion lens) | G + c, + (1-9 bacteria per field of vision under oil-immersion lens) | 6.7 | 6.2 |
